Residues, ends and D or L forms follow the SMILES beside them.
Legend:
Sap2 = Sap2 (Candida albicans, UniProt P0DJ06); assay: in vitro; settings: 2 h, 37° C.; for degradation by Sap2 (in words): 6.25 μg mL^−1 Sap2, 150 μg mL^−1 peptide
Method: (§1) Experiments were done in 1 mM NaPB. The mixtures were incubated at 37° C. for 2 h, and NaPB with no Sap was used as a control. After the incubation, the samples were mixed with tricine sample buffer (without Coomassie Blue G-250, except in control samples) containing β-mercaptoethanol and boiled for 5 min at 100° C. to inactivate the proteases. The degraded and non-degraded peptides were separated by gel electrophoresis in 10-20% Tris-tricine gels (Bio-Rad), and the gels were then fixed in a 10% acetic acid/40% methanol/50% water mixture for 30 min. The fixed gels were stained with Bio-Safe Coomassie stain (Bio-Rad) for 1 h and washed with fresh water three times, once overnight and then twice for at least 2 h each time. The gels were imaged on a Chemidoc imager (Bio-Rad), and densitometric analysis was done with Image Lab software (Bio-Rad). […] Three replicates of the assay were done.
(§2) To measure the antifungal activity of the peptides following degradation by the Saps, the antifungal activity assay was performed as described above, except the peptides were first exposed to Saps. The peptide fragments were prepared by incubating each peptide (150 μg mL^−1) with 6.25 μg mL^−1 Sap9 or 18 μg mL^−1 Sap2 for 2 h at 37° C. The enzymes were then inactivated by heating at 100° C. for 5 min. As controls, each peptide was also incubated with only NaPB buffer. Samples were then stored at −20° C. until use in the antifungal activity assay.
(§3) The intact peptide was then separated from the degradation products using gel electrophoresis and quantified the level of degradation using densitometric analysis of Coomassie-stained gels.
(§4) To amplify differences in antifungal activity due to degradation by the Saps, the concentrations of the Saps was increased by at least two-fold compared to the concentrations used for the gel electrophoresis data in FIGS. 1A-1D (to 6.25 μg mL^−1 for Sap9 and 18 μg mL^−1 for Sap2).

Sap9 = Sap9 (Candida albicans, UniProt Q59SU1); assay: in vitro; settings: 2 h, 37° C.; for degradation by Sap9 (in words): 3.13 μg mL^−1 Sap9, 150 μg mL^−1 peptide; for degradation at higher Sap9 concentration (in words): 6.25 μg mL^−1 Sap9, 150 μg mL^−1 peptide
Method: as §1, §2, §3, §4

[1] = test system: C. albicans cells (ATCC 90028); assay: Degradation of peptides by whole C. albicans cells, gel densitometry; format: in vitro ADME; settings: 1×10^9 cells mL^−1, 150 μg mL^−1 peptide, 2 h, 37° C., 100 mM NaPB
Method: For degradation with C. albicans, a single colony of the ATCC 90028 strain (American Type Culture Collection) was used to inoculate YPD. The culture was grown overnight, subcultured, and grown to an optical density of 1-1.2 at OD600. All incubations were done at 30° C. The cells were washed three times in 100 mM NaPB and diluted to 2×10^9 cells mL^−1. Equal volumes of cells and peptides were mixed and incubated for 2 h at 37° C. The cells were removed by centrifugation, and the supernatants were mixed with tricine sample buffer and boiled for 10 min. The samples were then run on gels and analyzed as described above for degradation by the Saps. Three biological replicates were performed.
After observing the effect of residue modifications on the cleavage of Hst-5 by the purified recombinant Saps, whether incubation of the peptides with whole C. albicans cells expressing Saps (rather than Saps produced recombinantly) would yield similar results was evaluated. Hst-5 and the synthetic peptides were incubated with C. albicans cells for 2 h at 37° C. in 100 mM NaPB. The high ionic strength of this buffer prevents internalization of the peptides by C. albicans (4) allowing analysis of degradation of the peptides without the confounding effects of peptide internalization, which would reduce the amount of peptide in the reaction buffer.

Sequence of Sap9 (Q59SU1 18-520): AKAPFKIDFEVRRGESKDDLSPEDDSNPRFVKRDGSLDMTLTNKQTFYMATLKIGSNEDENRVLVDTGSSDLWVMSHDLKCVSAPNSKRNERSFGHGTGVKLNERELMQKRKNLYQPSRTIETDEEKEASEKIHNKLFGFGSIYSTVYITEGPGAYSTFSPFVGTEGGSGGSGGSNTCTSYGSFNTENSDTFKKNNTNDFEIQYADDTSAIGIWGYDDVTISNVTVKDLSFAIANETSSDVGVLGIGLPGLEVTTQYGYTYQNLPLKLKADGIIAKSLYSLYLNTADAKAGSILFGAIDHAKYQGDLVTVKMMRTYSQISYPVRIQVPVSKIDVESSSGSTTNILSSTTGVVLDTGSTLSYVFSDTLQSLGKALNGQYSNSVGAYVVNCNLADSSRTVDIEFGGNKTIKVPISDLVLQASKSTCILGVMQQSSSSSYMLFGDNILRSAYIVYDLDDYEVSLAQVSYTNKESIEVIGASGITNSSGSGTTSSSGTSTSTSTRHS
Sequence of Sap2 (P0DJ06 57-398): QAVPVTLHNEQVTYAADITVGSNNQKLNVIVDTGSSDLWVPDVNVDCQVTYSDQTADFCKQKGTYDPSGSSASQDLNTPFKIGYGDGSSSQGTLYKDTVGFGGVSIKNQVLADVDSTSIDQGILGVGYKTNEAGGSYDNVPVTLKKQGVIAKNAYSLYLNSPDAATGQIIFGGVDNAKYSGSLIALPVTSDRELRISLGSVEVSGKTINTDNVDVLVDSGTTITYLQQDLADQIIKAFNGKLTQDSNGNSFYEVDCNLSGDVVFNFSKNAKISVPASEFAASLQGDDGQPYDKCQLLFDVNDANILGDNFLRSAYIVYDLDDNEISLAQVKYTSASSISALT

## CC(C)C[C@H](NC(=O)[C@H](Cc1c[nH]cn1)NC(=O)[C@H](Cc1ccccc1)NC(=O)[C@H](CCCCN)NC(=O)[C@H](CCCNC(=N)N)NC(=O)[C@H](CCCCN)NC(=O)[C@H](Cc1ccc(O)cc1)NC(=O)CNC(=O)[C@H](Cc1c[nH]cn1)NC(=O)[C@H](Cc1c[nH]cn1)NC(=O)[C@H](CCCNC(=N)N)NC(=O)[C@H](CCCCN)NC(=O)[C@H](C)NC(=O)[C@H](Cc1c[nH]cn1)NC(=O)[C@H](CO)NC(=O)[C@@H](N)CC(=O)O)C(=O)N[C@@H](CCCCN)C(=O)N[C@@H](Cc1c[nH]cn1)C(=O)N[C@@H](Cc1c[nH]cn1)C(=O)N[C@@H](CO)C(=O)N[C@@H](Cc1c[nH]cn1)C(=O)N[C@@H](CCCNC(=N)N)C(=O)NCC(=O)N[C@@H](Cc1ccc(O)cc1)C(=O)O [Peptide E16L] (H-DSHAKRHHGYKRKFHLKHHSHRGY-OH; N-terminus and C-terminus assumed)
Sap2
  degradation by Sap2 (in words): increased compared to Hst-5
Sap9
  degradation by Sap9 (in words): increased compared to Hst-5

## CC(C)C[C@H](NC(=O)[C@H](C)NC(=O)[C@H](Cc1c[nH]cn1)NC(=O)[C@H](CO)NC(=O)[C@@H](N)CC(=O)O)C(=O)N[C@@H](CCCNC(=N)N)C(=O)N[C@@H](Cc1c[nH]cn1)C(=O)N[C@@H](Cc1c[nH]cn1)C(=O)NCC(=O)N[C@@H](Cc1ccc(O)cc1)C(=O)N[C@@H](CCCCN)C(=O)N[C@@H](CCCNC(=N)N)C(=O)N[C@@H](CCCCN)C(=O)N[C@@H](Cc1ccccc1)C(=O)N[C@@H](Cc1c[nH]cn1)C(=O)N[C@@H](CCC(=O)O)C(=O)N[C@@H](CCCCN)C(=O)N[C@@H](Cc1c[nH]cn1)C(=O)N[C@@H](Cc1c[nH]cn1)C(=O)N[C@@H](CO)C(=O)N[C@@H](Cc1c[nH]cn1)C(=O)N[C@@H](CCCNC(=N)N)C(=O)NCC(=O)N[C@@H](Cc1ccc(O)cc1)C(=O)O [Peptide K5L] (H-DSHALRHHGYKRKFHEKHHSHRGY-OH; N-terminus and C-terminus assumed)
[1]
  degradation by C. albicans cells (in words): decrease in proteolysis
Sap9
  degradation by Sap9 (in words): greater degradation than their arginine-substituted counterparts or parent Hst-5
  degradation at higher Sap9 concentration (in words): not intact

## C[C@H](NC(=O)[C@H](Cc1c[nH]cn1)NC(=O)[C@H](CO)NC(=O)[C@@H](N)CC(=O)O)C(=O)N[C@@H](CCCNC(=N)N)C(=O)N[C@@H](CCCNC(=N)N)C(=O)N[C@@H](Cc1c[nH]cn1)C(=O)N[C@@H](Cc1c[nH]cn1)C(=O)NCC(=O)N[C@@H](Cc1ccc(O)cc1)C(=O)N[C@@H](CCCCN)C(=O)N[C@@H](CCCNC(=N)N)C(=O)N[C@@H](CCCCN)C(=O)N[C@@H](Cc1ccccc1)C(=O)N[C@@H](Cc1c[nH]cn1)C(=O)N[C@@H](CCC(=O)O)C(=O)N[C@@H](CCCCN)C(=O)N[C@@H](Cc1c[nH]cn1)C(=O)N[C@@H](Cc1c[nH]cn1)C(=O)N[C@@H](CO)C(=O)N[C@@H](Cc1c[nH]cn1)C(=O)N[C@@H](CCCNC(=N)N)C(=O)NCC(=O)N[C@@H](Cc1ccc(O)cc1)C(=O)O [Peptide K5R] (H-DSHARRHHGYKRKFHEKHHSHRGY-OH; N-terminus and C-terminus assumed)
[1]
  degradation by C. albicans cells (in words): no significant effect
Sap2; 18 μg mL^−1 Sap2, 150 μg mL^−1 peptide
  intact peptide at higher Sap2 concentration (in words): no statistically significant amount of these peptides remained

## CC(C)C[C@H](NC(=O)[C@H](Cc1ccc(O)cc1)NC(=O)CNC(=O)[C@H](Cc1c[nH]cn1)NC(=O)[C@H](Cc1c[nH]cn1)NC(=O)[C@H](CCCNC(=N)N)NC(=O)[C@H](CCCCN)NC(=O)[C@H](C)NC(=O)[C@H](Cc1c[nH]cn1)NC(=O)[C@H](CO)NC(=O)[C@@H](N)CC(=O)O)C(=O)N[C@@H](CCCNC(=N)N)C(=O)N[C@@H](CCCCN)C(=O)N[C@@H](Cc1ccccc1)C(=O)N[C@@H](Cc1c[nH]cn1)C(=O)N[C@@H](CCC(=O)O)C(=O)N[C@@H](CCCCN)C(=O)N[C@@H](Cc1c[nH]cn1)C(=O)N[C@@H](Cc1c[nH]cn1)C(=O)N[C@@H](CO)C(=O)N[C@@H](Cc1c[nH]cn1)C(=O)N[C@@H](CCCNC(=N)N)C(=O)NCC(=O)N[C@@H](Cc1ccc(O)cc1)C(=O)O [Peptide K11L] (H-DSHAKRHHGYLRKFHEKHHSHRGY-OH; N-terminus and C-terminus assumed)
Sap9
  degradation by Sap9 (in words): greater degradation than their arginine-substituted counterparts or parent Hst-5
  degradation at higher Sap9 concentration (in words): not intact

## C[C@H](NC(=O)[C@H](Cc1c[nH]cn1)NC(=O)[C@H](CO)NC(=O)[C@@H](N)CC(=O)O)C(=O)N[C@@H](CCCCN)C(=O)N[C@@H](CCCNC(=N)N)C(=O)N[C@@H](Cc1c[nH]cn1)C(=O)N[C@@H](Cc1c[nH]cn1)C(=O)NCC(=O)N[C@@H](Cc1ccc(O)cc1)C(=O)N[C@@H](CCCNC(=N)N)C(=O)N[C@@H](CCCNC(=N)N)C(=O)N[C@@H](CCCCN)C(=O)N[C@@H](Cc1ccccc1)C(=O)N[C@@H](Cc1c[nH]cn1)C(=O)N[C@@H](CCC(=O)O)C(=O)N[C@@H](CCCNC(=N)N)C(=O)N[C@@H](Cc1c[nH]cn1)C(=O)N[C@@H](Cc1c[nH]cn1)C(=O)N[C@@H](CO)C(=O)N[C@@H](Cc1c[nH]cn1)C(=O)N[C@@H](CCCNC(=N)N)C(=O)NCC(=O)N[C@@H](Cc1ccc(O)cc1)C(=O)O [Peptide K11R-K17R] (H-DSHAKRHHGYRRKFHERHHSHRGY-OH; N-terminus and C-terminus assumed)
Sap2
  degradation by Sap2 (in words): no observable degradation
Sap9
  degradation by Sap9 (in words): no observable degradation

## C[C@H](NC(=O)[C@H](Cc1c[nH]cn1)NC(=O)[C@H](CO)NC(=O)[C@@H](N)CC(=O)O)C(=O)N[C@@H](CCCCN)C(=O)N[C@@H](CCCNC(=N)N)C(=O)N[C@@H](Cc1c[nH]cn1)C(=O)N[C@@H](Cc1c[nH]cn1)C(=O)NCC(=O)N[C@@H](Cc1ccc(O)cc1)C(=O)N[C@@H](CCCNC(=N)N)C(=O)N[C@@H](CCCNC(=N)N)C(=O)N[C@@H](CCCCN)C(=O)N[C@@H](Cc1ccccc1)C(=O)N[C@@H](Cc1c[nH]cn1)C(=O)N[C@@H](CCC(=O)O)C(=O)N[C@@H](CCCCN)C(=O)N[C@@H](Cc1c[nH]cn1)C(=O)N[C@@H](Cc1c[nH]cn1)C(=O)N[C@@H](CO)C(=O)N[C@@H](Cc1c[nH]cn1)C(=O)N[C@@H](CCCNC(=N)N)C(=O)NCC(=O)N[C@@H](Cc1ccc(O)cc1)C(=O)O [Peptide K11R] (H-DSHAKRHHGYRRKFHEKHHSHRGY-OH; N-terminus and C-terminus assumed)
[1]
  degradation by C. albicans cells (in words): did not show a significant difference in degradation of the peptide compared to Hst-5
Sap9
  degradation by Sap9 (in words): did not show a significant increase in resistance to the protease
  degradation at higher Sap9 concentration (in words): significant reduction in degradation compared to Hst-5
